# Test results: ChEMBL document CHEMBL3885861, “Open TG-GATES”
# Species on record: Rattus norvegicus
# Assay: Open TG-GATES - Regimen: Daily Repeat
# Format: toxicity, organism-based, Sprague-Dawley
# Design: regimen Daily Repeat, gender Male, age 6 weeks
# Settings: in vivo, po, 100 mg/kg, route gavage, dose level Low; for APTT / Bas / Eos / Fbg / Hb / Ht / Lym / MCH / MCHC / MCV / Mono / Neu / PT / Plat / RBC / Ret / WBC: tissue Blood; for KIDNEY_L / KIDNEY_R / KIDNEY_TOTAL: tissue Kidney; for LIVER: tissue Liver; for A/G / ALP / ALT / AST / BUN / CRE / Ca / Cl / DBIL / GLC / IP / K / LDH / Na / PL / RALB / TBIL / TC / TG / TP / gamma-GTP: tissue Plasma
smiles,measurement,setting,value
CCCCNC(=O)NS(=O)(=O)c1ccc(C)cc1 [TOLBUTAMIDE],TERMINAL_BW,"72 h, time 3 day",233.9 g
same,APTT,"72 h, time 3 day",20.4 s
same,Bas,"72 h, time 3 day",0.2%
same,Eos,"72 h, time 3 day",1.2%
same,Fbg,"72 h, time 3 day",283.2 mg/dL
same,Hb,"72 h, time 3 day",13.7 g/dL
same,Ht,"72 h, time 3 day",42%
same,Lym,"72 h, time 3 day",80.2%
same,MCH,"72 h, time 3 day",20.2 pg
same,MCHC,"72 h, time 3 day",32.7%
same,MCV,"72 h, time 3 day",61.9 fL
same,Mono,"72 h, time 3 day",2.2%
same,Neu,"72 h, time 3 day",15.8%
same,PT,"72 h, time 3 day",13.2 s
same,Plat,"72 h, time 3 day",118.8 x10_4/uL
same,RBC,"72 h, time 3 day",680.4 x10_4/ul
same,Ret,"72 h, time 3 day",5.8%
same,WBC,"72 h, time 3 day",98.1 x10_2/uL
same,KIDNEY_L,"72 h, time 3 day",1 g
same,KIDNEY_R,"72 h, time 3 day",1 g
same,KIDNEY_TOTAL,"72 h, time 3 day",2 g
same,LIVER,"72 h, time 3 day",11.3 g
same,A/G,"72 h, time 3 day",0.9
same,ALP,"72 h, time 3 day",1905.6 IU/L
same,ALT,"72 h, time 3 day",46.2 IU/L
same,AST,"72 h, time 3 day",73.8 IU/L
same,BUN,"72 h, time 3 day",15 mg/dL
same,CRE,"72 h, time 3 day",0.2 mg/dL
same,Ca,"72 h, time 3 day",11.1 mg/dL
same,Cl,"72 h, time 3 day",104.6 meq/L
same,DBIL,"72 h, time 3 day",0.01 mg/dL
same,GLC,"72 h, time 3 day",180.4 mg/dL
same,IP,"72 h, time 3 day",8.4 mg/dL
same,K,"72 h, time 3 day",3.9 meq/L
same,LDH,"72 h, time 3 day",68.8 IU/L
same,Na,"72 h, time 3 day",142.6 meq/L
same,PL,"72 h, time 3 day",156.4 mg/dL
same,RALB,"72 h, time 3 day",2.6 g/dL
same,TBIL,"72 h, time 3 day",0.058 mg/dL
same,TC,"72 h, time 3 day",77 mg/dL
same,TG,"72 h, time 3 day",99.4 mg/dL
same,TP,"72 h, time 3 day",5.5 g/dL
same,gamma-GTP,"72 h, time 3 day",1 IU/L
same,TERMINAL_BW,"[…], time 7 day",273.5 g
same,TERMINAL_BW,"[…], time 14 day",313.3 g
same,TERMINAL_BW,"[…], time 28 day",400.3 g
same,APTT,"[…], time 7 day",16.9 s
same,Bas,"[…], time 7 day",0%
same,Eos,"[…], time 7 day",1%
same,Fbg,"[…], time 7 day",303.2 mg/dL
same,Hb,"[…], time 7 day",13.6 g/dL
same,Ht,"[…], time 7 day",40.9%
same,Lym,"[…], time 7 day",74.4%
same,MCH,"[…], time 7 day",20.4 pg
same,MCHC,"[…], time 7 day",33.2%
same,MCV,"[…], time 7 day",61.4 fL
same,Mono,"[…], time 7 day",2%
same,Neu,"[…], time 7 day",21.8%
same,PT,"[…], time 7 day",12.5 s
same,Plat,"[…], time 7 day",130 x10_4/uL
same,RBC,"[…], time 7 day",667 x10_4/ul
same,Ret,"[…], time 7 day",5.4%
same,WBC,"[…], time 7 day",123.8 x10_2/uL
same,APTT,"[…], time 14 day",18.6 s
same,Bas,"[…], time 14 day",0.2%
same,Eos,"[…], time 14 day",0.8%
same,Fbg,"[…], time 14 day",284.2 mg/dL
same,Hb,"[…], time 14 day",14.2 g/dL
same,Ht,"[…], time 14 day",43.5%
same,Lym,"[…], time 14 day",81%
same,MCH,"[…], time 14 day",19.5 pg
same,MCHC,"[…], time 14 day",32.6%
same,MCV,"[…], time 14 day",60 fL
same,Mono,"[…], time 14 day",1.8%
same,Neu,"[…], time 14 day",15.8%
same,PT,"[…], time 14 day",13.2 s
same,Plat,"[…], time 14 day",120.7 x10_4/uL
same,RBC,"[…], time 14 day",726.6 x10_4/ul
same,Ret,"[…], time 14 day",4.1%
same,WBC,"[…], time 14 day",100.3 x10_2/uL
same,APTT,"[…], time 28 day",17.5 s
same,Bas,"[…], time 28 day",0.6%
same,Eos,"[…], time 28 day",1.2%
same,Fbg,"[…], time 28 day",287.2 mg/dL
same,Hb,"[…], time 28 day",15.6 g/dL
same,Ht,"[…], time 28 day",46.6%
same,Lym,"[…], time 28 day",80.4%
same,MCH,"[…], time 28 day",18.8 pg
same,MCHC,"[…], time 28 day",33.5%
same,MCV,"[…], time 28 day",56.1 fL
same,Mono,"[…], time 28 day",2.4%
same,Neu,"[…], time 28 day",14.8%
same,PT,"[…], time 28 day",13.5 s
same,Plat,"[…], time 28 day",102.7 x10_4/uL
same,RBC,"[…], time 28 day",831.6 x10_4/ul
same,Ret,"[…], time 28 day",2.4%
same,WBC,"[…], time 28 day",116.4 x10_2/uL
same,KIDNEY_L,"[…], time 7 day",1.2 g
same,KIDNEY_R,"[…], time 7 day",1.2 g
same,KIDNEY_TOTAL,"[…], time 7 day",2.3 g
same,KIDNEY_L,"[…], time 14 day",1.2 g
same,KIDNEY_R,"[…], time 14 day",1.2 g
same,KIDNEY_TOTAL,"[…], time 14 day",2.4 g
same,KIDNEY_L,"[…], time 28 day",1.3 g
same,KIDNEY_R,"[…], time 28 day",1.3 g
same,KIDNEY_TOTAL,"[…], time 28 day",2.7 g
same,LIVER,"[…], time 7 day",12.8 g
same,LIVER,"[…], time 14 day",13.1 g
same,LIVER,"[…], time 28 day",15.8 g
same,A/G,"[…], time 7 day",0.9
same,ALP,"[…], time 7 day",1801.2 IU/L
same,ALT,"[…], time 7 day",43.8 IU/L
same,AST,"[…], time 7 day",68 IU/L
same,BUN,"[…], time 7 day",17.6 mg/dL
same,CRE,"[…], time 7 day",0.2 mg/dL
same,Ca,"[…], time 7 day",10.9 mg/dL
same,Cl,"[…], time 7 day",104.4 meq/L
same,DBIL,"[…], time 7 day",0.01 mg/dL
same,GLC,"[…], time 7 day",197.4 mg/dL
same,IP,"[…], time 7 day",7.9 mg/dL
same,K,"[…], time 7 day",4.1 meq/L
same,LDH,"[…], time 7 day",55.6 IU/L
same,Na,"[…], time 7 day",141.8 meq/L
same,PL,"[…], time 7 day",165.2 mg/dL
same,RALB,"[…], time 7 day",2.6 g/dL
same,TBIL,"[…], time 7 day",0.056 mg/dL
same,TC,"[…], time 7 day",79.6 mg/dL
same,TG,"[…], time 7 day",138.4 mg/dL
same,TP,"[…], time 7 day",5.5 g/dL
same,gamma-GTP,"[…], time 7 day",1.2 IU/L
same,A/G,"[…], time 14 day",0.8
same,ALP,"[…], time 14 day",1429.8 IU/L
same,ALT,"[…], time 14 day",37.2 IU/L
same,AST,"[…], time 14 day",67.4 IU/L
same,BUN,"[…], time 14 day",16.8 mg/dL
same,CRE,"[…], time 14 day",0.2 mg/dL
same,Ca,"[…], time 14 day",10.7 mg/dL
same,Cl,"[…], time 14 day",104.6 meq/L
same,DBIL,"[…], time 14 day",0.014 mg/dL
same,GLC,"[…], time 14 day",196.2 mg/dL
same,IP,"[…], time 14 day",7.1 mg/dL
same,K,"[…], time 14 day",3.8 meq/L
same,LDH,"[…], time 14 day",60.8 IU/L
same,Na,"[…], time 14 day",143.2 meq/L
same,PL,"[…], time 14 day",135 mg/dL
same,RALB,"[…], time 14 day",2.6 g/dL
same,TBIL,"[…], time 14 day",0.062 mg/dL
same,TC,"[…], time 14 day",61.6 mg/dL
same,TG,"[…], time 14 day",141.6 mg/dL
same,TP,"[…], time 14 day",5.7 g/dL
same,gamma-GTP,"[…], time 14 day",1.2 IU/L
same,A/G,"[…], time 28 day",0.8
same,ALP,"[…], time 28 day",1233.8 IU/L
same,ALT,"[…], time 28 day",38 IU/L
same,AST,"[…], time 28 day",63.8 IU/L
same,BUN,"[…], time 28 day",17.8 mg/dL
same,CRE,"[…], time 28 day",0.3 mg/dL
same,Ca,"[…], time 28 day",10.7 mg/dL
same,Cl,"[…], time 28 day",105.2 meq/L
same,DBIL,"[…], time 28 day",0.012 mg/dL
same,GLC,"[…], time 28 day",188.6 mg/dL
same,IP,"[…], time 28 day",6.7 mg/dL
same,K,"[…], time 28 day",3.9 meq/L
same,LDH,"[…], time 28 day",49.8 IU/L
same,Na,"[…], time 28 day",143 meq/L
same,PL,"[…], time 28 day",151.2 mg/dL
same,RALB,"[…], time 28 day",2.7 g/dL
same,TBIL,"[…], time 28 day",0.058 mg/dL
same,TC,"[…], time 28 day",68.8 mg/dL
same,TG,"[…], time 28 day",174.6 mg/dL
same,TP,"[…], time 28 day",6.2 g/dL
same,gamma-GTP,"[…], time 28 day",1 IU/L
